# Test system: NCI-H23 complex spheroids with HUVEC/MSC, viability
# Assay: Anticancer human tumor NCI-H23 cell line growth inhibition [RAS];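 also: spheroids exposed to compound for 7 days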;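 as to viability, T/C: 100% = DMSO vehicle control viability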
# Conditions: for IC50: curve of first compound; for viability, T/C: stronger effect = lower value
# Summary of the method: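 Agents were tested in combination matrices in half-log decrements from a top concentration at or near clinical Cmax (10 microM if undetermined). Targets were multi-cell spheroids of tumour lines plus HUVEC and MSC stromal cells.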
# [1] = second compound 0.000949 µM, first compound 0.0316 µM
# [2] = second compound 0.000949 µM, first compound 0.1 µM
# [3] = second compound 0.000949 µM, first compound 0.316 µM
# [4] = second compound 0.000949 µM, first compound 1 µM
# [5] = second compound 0.000949 µM, first compound 3.16 µM
# [6] = second compound 0.000949 µM, first compound 10 µM
# [7] = second compound 0.003 µM, first compound 0.0316 µM
# [8] = second compound 0.003 µM, first compound 0.1 µM
# [9] = second compound 0.003 µM, first compound 0.316 µM
# [10] = second compound 0.003 µM, first compound 1 µM
# [11] = second compound 0.003 µM, first compound 3.16 µM
# [12] = second compound 0.003 µM, first compound 10 µM
# [13] = second compound 0.00949 µM, first compound 0.0316 µM
# [14] = second compound 0.00949 µM, first compound 0.1 µM
# [15] = second compound 0.00949 µM, first compound 0.316 µM
# [16] = second compound 0.00949 µM, first compound 1 µM
# [17] = second compound 0.00949 µM, first compound 3.16 µM
# [18] = second compound 0.00949 µM, first compound 10 µM
# [19] = second compound 0.03 µM, first compound 0.0316 µM
# [20] = second compound 0.03 µM, first compound 0.1 µM
# [21] = second compound 0.03 µM, first compound 0.316 µM
# [22] = second compound 0.03 µM, first compound 1 µM
# [23] = second compound 0.03 µM, first compound 3.16 µM
# [24] = second compound 0.03 µM, first compound 10 µM
# [25] = second compound 0.0949 µM, first compound 0.0316 µM
# [26] = second compound 0.0949 µM, first compound 0.1 µM
# [27] = second compound 0.0949 µM, first compound 0.316 µM
# [28] = second compound 0.0949 µM, first compound 1 µM
# [29] = second compound 0.0949 µM, first compound 3.16 µM
# [30] = second compound 0.0949 µM, first compound 10 µM
# [31] = second compound 0.3 µM, first compound 0.0316 µM
# [32] = second compound 0.3 µM, first compound 0.1 µM
# [33] = second compound 0.3 µM, first compound 0.316 µM
# [34] = second compound 0.3 µM, first compound 1 µM
# [35] = second compound 0.3 µM, first compound 3.16 µM
# [36] = second compound 0.3 µM, first compound 10 µM
structure (smiles),measurement,setting,value
CC1(O)CCCC1n1c(=O)c(C(F)F)cc2cnc(NC3CCN(S(C)(=O)=O)CC3)nc21 (centres undefined) + CCn1c(-c2cc(N3CCN(C)CC3)cnc2C(C)OC)c2c3cc(ccc31)-c1csc(n1)CC(NC(=O)C1CC1C)C(=O)N1CCCC(N1)C(=O)OCC(C)(C)C2,IC50,second compound 0.000949 µM,< 0.0316 µM
same,IC50,second compound 0.003 µM,< 0.0316 µM
same,IC50,second compound 0.00949 µM,< 0.0316 µM
same,IC50,second compound 0.03 µM,< 0.0316 µM
same,IC50,second compound 0.0949 µM,< 0.0316 µM
same,IC50,second compound 0.3 µM,< 0.0316 µM
same,"viability, T/C",[1],33.9%
same,"viability, T/C",[2],26.3%
same,"viability, T/C",[3],17.7%
same,"viability, T/C",[4],25.8%
same,"viability, T/C",[5],25.5%
same,"viability, T/C",[6],2.68%
same,"viability, T/C",[7],31.6%
same,"viability, T/C",[8],18.7%
same,"viability, T/C",[9],15.9%
same,"viability, T/C",[10],19.1%
same,"viability, T/C",[11],24%
same,"viability, T/C",[12],1.43%
same,"viability, T/C",[13],32%
same,"viability, T/C",[14],15.7%
same,"viability, T/C",[15],13.9%
same,"viability, T/C",[16],17.6%
same,"viability, T/C",[17],17.9%
same,"viability, T/C",[18],1.78%
same,"viability, T/C",[19],20.8%
same,"viability, T/C",[20],18%
same,"viability, T/C",[21],15%
same,"viability, T/C",[22],17.1%
same,"viability, T/C",[23],14.5%
same,"viability, T/C",[24],2.47%
same,"viability, T/C",[25],17.3%
same,"viability, T/C",[26],15.4%
same,"viability, T/C",[27],13.4%
same,"viability, T/C",[28],14.1%
same,"viability, T/C",[29],12.1%
same,"viability, T/C",[30],2.66%
same,"viability, T/C",[31],18.7%
same,"viability, T/C",[32],14.8%
same,"viability, T/C",[33],15.1%
same,"viability, T/C",[34],12.8%
same,"viability, T/C",[35],11.8%
same,"viability, T/C",[36],2.94%
CCC(CC)c1cc(NC2CCC(N)C2)n2nccc2n1 (centres undefined) + CCn1c(-c2cc(N3CCN(C)CC3)cnc2C(C)OC)c2c3cc(ccc31)-c1csc(n1)CC(NC(=O)C1CC1C)C(=O)N1CCCC(N1)C(=O)OCC(C)(C)C2,IC50,second compound 0.000949 µM,< 0.0316 µM
same,IC50,second compound 0.003 µM,< 0.0316 µM
same,IC50,second compound 0.00949 µM,< 0.0316 µM
same,IC50,second compound 0.03 µM,< 0.0316 µM
same,IC50,second compound 0.0949 µM,< 0.0316 µM
same,IC50,second compound 0.3 µM,< 0.0316 µM
same,"viability, T/C",[1],46.5%
same,"viability, T/C",[2],50.7%
same,"viability, T/C",[3],40.9%
same,"viability, T/C",[4],41.2%
same,"viability, T/C",[5],2.33%
same,"viability, T/C",[6],0.49%
same,"viability, T/C",[7],37.7%
same,"viability, T/C",[8],33.8%
same,"viability, T/C",[9],34%
same,"viability, T/C",[10],36.4%
same,"viability, T/C",[11],2.67%
same,"viability, T/C",[12],0.37%
same,"viability, T/C",[13],36.3%
same,"viability, T/C",[14],33.7%
same,"viability, T/C",[15],34.2%
same,"viability, T/C",[16],35.7%
same,"viability, T/C",[17],1.63%
same,"viability, T/C",[18],0.42%
same,"viability, T/C",[19],30.1%
same,"viability, T/C",[20],24.9%
same,"viability, T/C",[21],31.1%
same,"viability, T/C",[22],28.3%
same,"viability, T/C",[23],0.59%
same,"viability, T/C",[24],0.54%
same,"viability, T/C",[25],22.9%
same,"viability, T/C",[26],23.2%
same,"viability, T/C",[27],24.7%
same,"viability, T/C",[28],25.4%
same,"viability, T/C",[29],0.87%
same,"viability, T/C",[30],0.64%
same,"viability, T/C",[31],19%
same,"viability, T/C",[32],20.5%
same,"viability, T/C",[33],22.4%
same,"viability, T/C",[34],19%
same,"viability, T/C",[35],1.45%
same,"viability, T/C",[36],0.47%
